# Data from ChEMBL document CHEMBL1201862, “PubChem BioAssay data set” (2004).
#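 A five-concentration, 48-hour dose response in 96-well plates underlies each endpoint, interpolated linearly between surrounding concentrations. GI50 is the concentration that inhibits growth by half.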 Activity calls are given as the source filed them. Cut-off read from the data, not from the text of the source: active = GI50 up to about 1.1 µM and inactive = higher.
# Assays:
# Test in all cases: NCI tumour cell line growth inhibition, 48 h
# U-251 = test system: U-251
# SF-268 = test system: SF-268
# KM12 = test system: KM12
# LOX IMVI = test system: LOX IMVI
# DU-145 = test system: DU-145
# SF-539 = test system: SF-539
# PC-3 = test system: PC-3
# SF-295 = test system: SF-295
# Malme-3M = test system: Malme-3M
# RXF 393 = test system: RXF 393
# HT-29 = test system: HT-29
# Hs-578T = test system: Hs-578T
# SW-620 = test system: SW-620
# UO-31 = test system: UO-31
# CCRF-CEM = test system: CCRF-CEM
# NCI-H23 = test system: NCI-H23
# A549 = test system: A549
# UACC-62 = test system: UACC-62
# SNB-75 = test system: SNB-75
# SR = test system: SR
SMILES,GI50 (U-251),GI50 (SF-268),GI50 (KM12),GI50 (LOX IMVI),GI50 (DU-145),GI50 (SF-539),GI50 (PC-3),GI50 (SF-295),GI50 (Malme-3M),GI50 (RXF 393),GI50 (HT-29),GI50 (Hs-578T),GI50 (SW-620),GI50 (UO-31),GI50 (CCRF-CEM),GI50 (NCI-H23),GI50 (A549),GI50 (UACC-62),GI50 (SNB-75),GI50 (SR)
N#Cc1nc(COCCOCc2ccccc2)oc1N,> 100 µM (inactive),> 100 µM (inactive),> 100 µM (inactive),> 100 µM (inactive),> 100 µM (inactive),> 100 µM (inactive),> 100 µM (inactive),> 100 µM (inactive),> 100 µM (inactive),> 100 µM (inactive),> 100 µM (inactive),> 100 µM (inactive),> 100 µM (inactive),> 100 µM (inactive),30 µM (inactive),> 100 µM (inactive),> 100 µM (inactive),> 100 µM (inactive),> 100 µM (inactive),> 100 µM (inactive)
CC(C)(C)OC(=O)[C@@H]1CCC(=O)N1C1(c2ccccc2)c2ccccc2-c2ccccc21,25.7 µM (inactive),> 100 µM (inactive),43.3 µM (inactive),17.9 µM (inactive),97.1 µM (inactive),17.1 µM (inactive),29.4 µM (inactive),19.1 µM (inactive),33.3 µM (inactive),9.77 µM (inactive),23.7 µM (inactive),33.5 µM (inactive),30.5 µM (inactive),67.3 µM (inactive),23.8 µM (inactive),62.4 µM (inactive),35.2 µM (inactive),33.6 µM (inactive),25.9 µM (inactive),38.5 µM (inactive)
N#CCCC1(CCC#N)S(=O)(=O)OCCOS1(=O)=O,24.7 µM (inactive),32.9 µM (inactive),32 µM (inactive),18.3 µM (inactive),58.3 µM (inactive),8.34 µM (inactive),63.4 µM (inactive),8.99 µM (inactive),46.1 µM (inactive),37.1 µM (inactive),45.9 µM (inactive),18.2 µM (inactive),24.1 µM (inactive),50.5 µM (inactive),28.7 µM (inactive),36.1 µM (inactive),48.1 µM (inactive),9.4 µM (inactive),32.1 µM (inactive),29.6 µM (inactive)
COC(=O)Cc1cc2c(cc1C(=O)c1ccc(N)cc1)OCO2,3.05 µM (inactive),2.62 µM (inactive),0.488 µM (active),5.45 µM (inactive),4.11 µM (inactive),2.9 µM (inactive),1.73 µM (inactive),1.12 µM (active),> 100 µM (inactive),4.34 µM (inactive),1.09 µM (active),2.26 µM (inactive),1.19 µM (inactive),13.6 µM (inactive),1.48 µM (inactive),5.68 µM (inactive),3.62 µM (inactive),1.11 µM (active),1.21 µM (inactive),0.117 µM (active)
N#Cc1c(N)oc(-c2cccc([N+](=O)[O-])c2)c1C#N,27.5 µM (inactive),31.4 µM (inactive),> 10 µM (inactive),31.6 µM (inactive),> 100 µM (inactive),23.2 µM (inactive),62.8 µM (inactive),> 100 µM (inactive),24.4 µM (inactive),24.8 µM (inactive),20 µM (inactive),32.8 µM (inactive),24.1 µM (inactive),16.7 µM (inactive),27 µM (inactive),21.4 µM (inactive),> 100 µM (inactive),30 µM (inactive),21.9 µM (inactive),46.6 µM (inactive)
COc1ccc(C(CC2(c3ccc(OC)cc3)SCCCS2)NC(C)=O)cc1 (stereo not given),38.8 µM (inactive),87.3 µM (inactive),45.4 µM (inactive),85.5 µM (inactive),44.6 µM (inactive),> 100 µM (inactive),23.8 µM (inactive),33.8 µM (inactive),86.9 µM (inactive),67.9 µM (inactive),65.2 µM (inactive),86.7 µM (inactive),47.8 µM (inactive),96.4 µM (inactive),21.9 µM (inactive),29.4 µM (inactive),55.8 µM (inactive),> 100 µM (inactive),32.4 µM (inactive),71.3 µM (inactive)
COc1cc(OC)c(C2(c3c(OC(C)C)c(=O)c3=O)SCCCS2)cc1OC,> 100 µM (inactive),> 100 µM (inactive),> 100 µM (inactive),> 100 µM (inactive),> 100 µM (inactive),> 100 µM (inactive),> 100 µM (inactive),> 100 µM (inactive),> 100 µM (inactive),> 100 µM (inactive),> 100 µM (inactive),> 100 µM (inactive),> 100 µM (inactive),> 100 µM (inactive),> 100 µM (inactive),> 100 µM (inactive),> 100 µM (inactive),> 100 µM (inactive),> 100 µM (inactive),> 100 µM (inactive)
O=C1CSC(c2ccccc2O)N1c1ccc(-c2ccc(-n3c(-c4ccccc4)nc4ccccc4c3=O)cc2)cc1 (stereo not given),33.7 µM (inactive),45.3 µM (inactive),13.9 µM (inactive),25.7 µM (inactive),49 µM (inactive),32.1 µM (inactive),27.7 µM (inactive),22.5 µM (inactive),17.2 µM (inactive),35.1 µM (inactive),13.3 µM (inactive),40.1 µM (inactive),22.8 µM (inactive),20.7 µM (inactive),26.4 µM (inactive),43.9 µM (inactive),21.3 µM (inactive),27.7 µM (inactive),24.9 µM (inactive),54.3 µM (inactive)
Cc1ccc(NC(=O)c2cc(S(=O)(=O)Nc3nc4cccnc4[nH]3)c(SSc3cc(Cl)c(C(=O)Nc4ccc(C)cc4)cc3S(=O)(=O)Nc3nc4cccnc4[nH]3)cc2Cl)cc1,> 100 µM (inactive),> 100 µM (inactive),> 100 µM (inactive),> 100 µM (inactive),> 100 µM (inactive),> 100 µM (inactive),> 100 µM (inactive),> 100 µM (inactive),> 100 µM (inactive),> 100 µM (inactive),> 100 µM (inactive),> 100 µM (inactive),> 100 µM (inactive),> 100 µM (inactive),> 100 µM (inactive),> 100 µM (inactive),> 100 µM (inactive),> 100 µM (inactive),> 100 µM (inactive),> 100 µM (inactive)
O=P(NC12CC3CC(CC(C3)C1)C2)(N1CC1)N1CC1,27.4 µM (inactive),12.3 µM (inactive),> 100 µM (inactive),11.1 µM (inactive),6.31 µM (inactive),15.9 µM (inactive),> 100 µM (inactive),10 µM (inactive),84.9 µM (inactive),15.4 µM (inactive),21.2 µM (inactive),89.3 µM (inactive),> 86.5 µM (inactive),30.5 µM (inactive),7.24 µM (inactive),6.05 µM (inactive),26.5 µM (inactive),4.16 µM (inactive),22.4 µM (inactive),2.05 µM (inactive)
